Source: patent publication US20220378732A1, “SmartCore Compositions and Methods” (NPI, LLC, priority 2020, published 2022)

Experiments:
[1] = tested on: T2D mouse model; assay: serum LPC-fatty acid levels after 4 weeks of administration in T2D mouse model; assay type: in vivo, mice; settings: for serum concentration of LPC-arachidonic acid (AA) / serum concentration of LPC-eicosapentaenoic acid (EPA) / serum concentration of α-linolenic acid (aLA): FIG. 5; for change in serum LPC-18:2 / change in serum LPC-DHA: T2D mouse model, 4 weeks of administration; for change in serum LPC-18:2: FIG. 3; for change in serum LPC-DHA: FIG. 4
Procedure: To validate the inventors' hypotheses on the biological activity of the lignan and methyl donor various animal experiments were performed using mice as test subjects. Diabetes (type 1 and type 2) was used as model disease for LPC deficiency. Type 2 (T2D) diabetic mice were 6-week-old BKS.Cg-Dock7m+/+Leprdb/J (db/db), leptin receptor deficient. Hyperglycemia was confirmed (BG>250 mg/dl). Upon confirmation, all animals were subjected to 4-week treatment as indicated below. Treatment groups were as follows: Control, MSM treatment alone, sesame seed oil treatment alone, and MSM+sesame seed oil treatment. For harvest, serum was collected for lipid panel and analyzed using standard clinical protocol and equipment. Tissues (brain, eyes, heart, liver, kidneys) for fatty acid analysis was frozen at −80° C., and liver sections preserved in formalin for histology. MSM was administered as 1% MSM solution in water: 15-20 ml water was given per ˜25 g mouse per day (6-8 g/kg dose for ˜25 g mouse; 3-5 g/kg dose for ˜40 g mouse). Sesamin was provided as 1.58 mg/mL sesamin in sesame seed oil with 0.12-0.15 mg/g sesamin in mouse food (T1D: 4.4 g food per mouse per day; T2D: 7-8 g food per mouse per day; 20-22 mg/kg dose for mouse (both models)). After 4 weeks of administration of the tested compounds in the T2D mouse model, LPC-18:2 and LPC-DHA were determined from plasma and exemplary results are shown in FIG. 3 and FIG. 4, respectively.

[2] = tested on: high-fat diet-induced dyslipidemia; settings: Nutrients 2016, 8, 276; cited from earlier work
[3] = tested on: mice with high-fat diet-induced diabetes; settings: Exp Physiol 100.11 (2015); cited from earlier work

| SMILES | serum concentration of LPC-arachidonic acid (AA) [1] | serum concentration of LPC-eicosapentaenoic acid (EPA) [1] | serum concentration of α-linolenic acid (aLA) [1] | change in serum LPC-18:2 [1] | change in serum LPC-DHA [1] | effect on high-fat diet-induced dyslipidemia and kidney injury [2] | effect on exercise capacity and skeletal muscle mitochondrial function [3] |
| --- | --- | --- | --- | --- | --- | --- | --- |
| CS(C)(=O)=O [MSM, methylsulfonylmethane] | did not result in an increase | did not result in an increase | did not result in an increase | did not trigger a statistically relevant change | did not trigger a statistically relevant change | – | – |
| c1cc2c(cc1[C@H]1OC[C@H]3[C@@H]1CO[C@@H]3c1ccc3c(c1)OCO3)OCO2 [sesamin] | did not result in an increase | did not result in an increase | did not result in an increase | did not trigger a statistically relevant change | did not trigger a statistically relevant change | ameliorating high-fat diet-induced dyslipidemia and kidney injury | prevent decline in exercise capacity and impairment of skeletal muscle mitochondrial function |
